Experimental data from patent US6355799B1, “Substituted benzene compounds, process for their preparation, and herbicidal and defoliant compositions containing them” (ISK Americas Incorporated, priority 1997, dated 2002).

Columns and labels:
Assay type in all cases: in vivo
[1] = tested on: redroot pigweed (Amaranthus retroflexus, AMARE); test: Pre-emerge test, greenhouse herbicide activity screening; conditions: rated 14 days after application, 0 = no damage, 100 = complete death
Summary of the method: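 Herbicidal damage is scored 0 (none) to 100 (complete plant death) two weeks after a simulated field spray. Rates span 15–1000 g ai/ha, delivered in acetone at 187 l/ha. For post-emergence treatments, plants have 2–3 leaves and the spray carries 0.25% v/v non-ionic surfactant.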

[2] = tested on: barnyardgrass (Echinochloa crus-galli, ECHCG); test: as above; conditions: rated 14 days after application, 0 = no damage, 100 = complete death
Summary of the method: (§1)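 Applied at 15–1000 g ai/ha from acetone in 187 l/ha spray volume. Post-emergence applications included 0.25% v/v non-ionic surfactant and reached plants sown 8–21 days before. Pre-emergence applications were incorporated by surface watering. Efficacy or crop damage was rated on a 0–100 scale after 14 days.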

[3] = tested on: green foxtail (Setaria viridis, SETVI); test: as above; conditions: rated 14 days after application, 0 = no damage, 100 = complete death
Summary of the method: as §1

[4] = tested on: ivyleaf morningglory (Ipomoea hederacea, IPOHE); test: as above; conditions: rated 14 days after application, 0 = no damage, 100 = complete death
Summary of the method: as §1

[5] = tested on: johnsongrass (Sorghum halepense, SORHA); test: as above; conditions: rated 14 days after application, 0 = no damage, 100 = complete death
Summary of the method: as §1

[6] = tested on: lambsquarters (Chenopodium album, CHEAL); test: as above; conditions: rated 14 days after application, 0 = no damage, 100 = complete death
Summary of the method: as §1

[7] = tested on: large crabgrass (Digitaria sanguinalis, DIGSA); test: as above; conditions: rated 14 days after application, 0 = no damage, 100 = complete death
Summary of the method: as §1

[8] = tested on: sicklepod (Cassia obtusifolia, CASOB); test: as above; conditions: rated 14 days after application, 0 = no damage, 100 = complete death
Summary of the method: as §1

[9] = tested on: velvetleaf (Abutilon theophrasti, ABUTH); test: as above; conditions: rated 14 days after application, 0 = no damage, 100 = complete death
Summary of the method: as §1

[10] = tested on: field corn (Zea mays L., var. Dekalb 535, CORN); test: Pre-emerge test, crop safety; conditions: rated 14 days after application, 0 = no damage, 100 = complete death
Summary of the method: as §1

[11] = tested on: upland rice (Oryza sp., var. Tebonnet, RICE); test: Pre-emerge test, crop safety; conditions: rated 14 days after application, 0 = no damage, 100 = complete death
Summary of the method: as §1

[12] = tested on: barnyardgrass (Echinochloa crus-galli, ECHCG); test: Post-emerge test, greenhouse herbicide activity screening; conditions: post-emerge, 14 days after application, rating scale 0-100
Summary of the method: (§2)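 Visual ratings on a 0-100 scale (0 no damage, 100 all plants dead) were taken at 14 days after treatment. Rates of 15-1000 g ai/ha in acetone, 187 l/ha, were sprayed onto soil one day after planting (pre-emerge) or onto 2-3 leaf plants with 0.25% v/v surfactant (post-emerge).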

[13] = tested on: common ragweed (Ambrosia artemisizfolia L., AMBEL); test: as above; conditions: post-emerge, 14 days after application, rating scale 0-100
Summary of the method: as §2

[14] = tested on: green foxtail (Setaria viridis, SETVI); test: as above; conditions: post-emerge, 14 days after application, rating scale 0-100
Summary of the method: as §2

[15] = tested on: ivyleaf morningglory (Ipomoea hederacea, IPOHE); test: as above; conditions: post-emerge, 14 days after application, rating scale 0-100
Summary of the method: as §2

[16] = tested on: johnsongrass (Sorghum halepense, SORHA); test: as above; conditions: post-emerge, 14 days after application, rating scale 0-100
Summary of the method: as §2

[17] = tested on: lambsquarters (Chenopodium album, CHEAL); test: as above; conditions: post-emerge, 14 days after application, rating scale 0-100
Summary of the method: as §2

[18] = tested on: large crabgrass (Digitaria sanguinalis, DIGSA); test: as above; conditions: post-emerge, 14 days after application, rating scale 0-100
Summary of the method: as §2

[19] = tested on: redroot pigweed (Amaranthus retroflexus, AMARE); test: as above; conditions: post-emerge, 14 days after application, rating scale 0-100
Summary of the method: as §2

[20] = tested on: sicklepod (Cassia obtusifolia, CASOB); test: as above; conditions: post-emerge, 14 days after application, rating scale 0-100
Summary of the method: as §2

[21] = tested on: velvetleaf (Abutilon theophrasti, ABUTH); test: as above; conditions: post-emerge, 14 days after application, rating scale 0-100
Summary of the method: as §2

[22] = tested on: field corn (Zea mays L., var. Dekalb 535, CORN); test: Post-emerge test, crop safety; conditions: post-emerge, 14 days after application, rating scale 0-100
Summary of the method: as §1

[23] = tested on: upland rice (Oryza sp., var. Tebonnet, RICE); test: Post-emerge test, crop safety; conditions: post-emerge, 14 days after application, rating scale 0-100
Summary of the method: as §1

COc1c(Cl)cc(F)c(-n2c(=O)cc(C(F)(F)F)n(C)c2=O)c1NC(=O)c1ccc(C(F)(F)F)cc1 [2-33]
Pre-emerge Herbicidal Activity, phytotoxicity rating (0-100), AMARE ([1]; 63 g ai/ha): 100
Pre-emerge Herbicidal Activity, phytotoxicity rating (0-100), AMARE ([1]; 250 g ai/ha): 100
Pre-emerge Herbicidal Activity, phytotoxicity rating (0-100), ECHCG ([2]; 63 g ai/ha): 30
Pre-emerge Herbicidal Activity, phytotoxicity rating (0-100), ECHCG ([2]; 250 g ai/ha): 95
Pre-emerge Herbicidal Activity, phytotoxicity rating (0-100), SETVI ([3]; 63 g ai/ha): 100
Pre-emerge Herbicidal Activity, phytotoxicity rating (0-100), SETVI ([3]; 250 g ai/ha): 100
Pre-emerge Herbicidal Activity, phytotoxicity rating (0-100), IPOHE ([4]; 63 g ai/ha): 100
Pre-emerge Herbicidal Activity, phytotoxicity rating (0-100), IPOHE ([4]; 250 g ai/ha): 100
Pre-emerge Herbicidal Activity, phytotoxicity rating (0-100), SORHA ([5]; 63 g ai/ha): 60
Pre-emerge Herbicidal Activity, phytotoxicity rating (0-100), SORHA ([5]; 250 g ai/ha): 90
Pre-emerge Herbicidal Activity, phytotoxicity rating (0-100), CHEAL ([6]; 63 g ai/ha): 100
Pre-emerge Herbicidal Activity, phytotoxicity rating (0-100), CHEAL ([6]; 250 g ai/ha): 100
Pre-emerge Herbicidal Activity, phytotoxicity rating (0-100), DIGSA ([7]; 63 g ai/ha): 100
Pre-emerge Herbicidal Activity, phytotoxicity rating (0-100), DIGSA ([7]; 250 g ai/ha): 100
Pre-emerge Herbicidal Activity, phytotoxicity rating (0-100), CASOB ([8]; 63 g ai/ha): 100
Pre-emerge Herbicidal Activity, phytotoxicity rating (0-100), CASOB ([8]; 250 g ai/ha): 100
Pre-emerge Herbicidal Activity, phytotoxicity rating (0-100), ABUTH ([9]; 63 g ai/ha): 100
Pre-emerge Herbicidal Activity, phytotoxicity rating (0-100), ABUTH ([9]; 250 g ai/ha): 100
Pre-emerge phytotoxicity rating (0-100), crop damage, CORN ([10]; 63 g ai/ha): 70
Pre-emerge phytotoxicity rating (0-100), crop damage, CORN ([10]; 250 g ai/ha): 90
Pre-emerge phytotoxicity rating (0-100), crop damage, RICE ([11]; 63 g ai/ha): 70
Pre-emerge phytotoxicity rating (0-100), crop damage, RICE ([11]; 250 g ai/ha): 80
phytotoxicity rating ECHCG ([12]; 63 g ai/ha): 10
phytotoxicity rating ECHCG ([12]; 250 g ai/ha): 60
phytotoxicity rating AMBEL ([13]; 63 g ai/ha): 70
phytotoxicity rating AMBEL ([13]; 250 g ai/ha): 95
phytotoxicity rating SETVI ([14]; 63 g ai/ha): 50
phytotoxicity rating SETVI ([14]; 250 g ai/ha): 40
phytotoxicity rating IPOHE ([15]; 63 g ai/ha): 100
phytotoxicity rating IPOHE ([15]; 250 g ai/ha): 100
phytotoxicity rating SORHA ([16]; 63 g ai/ha): 0
phytotoxicity rating SORHA ([16]; 250 g ai/ha): 20
phytotoxicity rating CHEAL ([17]; 63 g ai/ha): 80
phytotoxicity rating CHEAL ([17]; 250 g ai/ha): 95
phytotoxicity rating DIGSA ([18]; 63 g ai/ha): 0
phytotoxicity rating DIGSA ([18]; 250 g ai/ha): 40
phytotoxicity rating AMARE ([19]; 63 g ai/ha): 90
phytotoxicity rating AMARE ([19]; 250 g ai/ha): 95
phytotoxicity rating CASOB ([20]; 63 g ai/ha): 70
phytotoxicity rating CASOB ([20]; 250 g ai/ha): 80
phytotoxicity rating ABUTH ([21]; 63 g ai/ha): 100
phytotoxicity rating ABUTH ([21]; 250 g ai/ha): 100
phytotoxicity rating CORN ([22]; 63 g ai/ha): 10
phytotoxicity rating CORN ([22]; 250 g ai/ha): 40
phytotoxicity rating RICE ([23]; 63 g ai/ha): 20
phytotoxicity rating RICE ([23]; 250 g ai/ha): 60
